BindingDB's records for doi:10.1021/jm030241s (National Cancer Institute-Frederick, 2003)

Target: Thymidine kinase (Human herpesvirus 1)
Experiment: Binding affinity constant against HSV-1 thymidine kinase

Compound O=c1[nH]c(=O)n([C@H]2C[C@H](O)[C@]3(CO)C[C@H]23)cc1C=CBr [5-((E)-2-Bromo-vinyl)-1-((1R,3S,4S,6S)-4-hydroxy-5-hydroxymethyl-bicyclo[3.1.0]hex-2-yl)-1H-pyrimidine-2,4-dione] has a Ki of 62.9 µM.
